Results taken from PMC8012331, “Drug-induced hepatic steatosis in absence of severe mitochondrial dysfunction in HepaRG cells: proof of multiple mechanism-based toxicity” (Cell Biology and Toxicology, 2020).
Values joined by “and” are separate entries in the source; they are usually repeats but may differ in a detail not shown here. Equal values may be shown once. Read-outs that look alike come from different tables or passages of the source.

Legend:
apoB secretion = test: apoB level in culture medium (ELISA), HepaRG cells; format: cell-based, human; conditions: 4 days, culture medium, vs control
Method: (§1) Experiments were carried out on passages 9 to 16. […] DPEN was dissolved in water.
Twenty-four hours after the last treatment, cell supernatants were removed and stored at − 80 °C until use for apolipoprotein measurement. ApoB level was measured using the Human Apolipoprotein B ELISA^pro kit from Mabtech (Nacka Strand, Sweden), according to the manufacturer’s instructions. Briefly, 50 μL of samples were diluted 2× in Apo ELISA buffer before a 2-h incubation in the precoated strip plates provided in the kit. The plates were washed and incubated 1 h with the biotinylated monoclonal anti-human apoB (LDL-11-biotin) antibody. The plates were then washed and incubated 1 h with a streptavidin–horseradish peroxidase conjugated antibody. After another washing, 3,3′,5,5′-tetramethylbenzidine (TMB) was used as substrate for 15 min before adding a stop solution. Absorbance at 450 nm was then measured using a POLARstar Omega microplate reader (BMG Labtech, Ortenberg). ApoB level was calculated utilizing a four-parameter standard curve, and normalized to the total cellular protein content and expressed in comparison to control cells.

[1] = patients, ref given per drug, cited from earlier work; for Cmax: read-out: Maximum plasma concentration (Cmax) in patients
[2] = treated patients, ref Schulz M et al., Crit Care 2012 ;16(4):R136, cited from earlier work
HepaRG cells [3] = test: Neutral lipids with Nile red in HepaRG cells; conditions: 4 days
Method: (§2) Briefly, HepaRG cells were seeded in 96-well plates at a density of 2.6 × 10^4 cells/cm^2 and were first incubated in William’s E medium supplemented with 10% FBS (50% FBS from Eurobio and 50% FBS from GE Healthcare), 100 U/mL penicillin, 100 μg/mL streptomycin, 2 mM glutamine, 5 μg/mL insulin, and 50 μM hydrocortisone hemisuccinate. […] During this 1-month period, the culture medium was renewed three times a week. […] HepaRG cells were next cultured in the same FBS/DMSO conditions and incubated for 4 days with each drug at different concentrations. Culture medium was renewed every day and all investigations were performed after 96 h (i.e., 24 h after the fourth treatment). These investigations were mostly performed in 96-well plates except for western blot analysis, for which 6-well plates were used. Experiments were carried out on passages 9 to 16. All drugs (except DPEN), etomoxir, lomitapide, tunicamycin, thapsigargin, and TUDCA were dissolved in DMSO. DPEN was dissolved in water.
(§3) Cells were then incubated with PBS containing 0.1 μg/mL Nile red for 30 min and washed once. […] For each well, four pictures were taken at a magnification of × 20 and analyzed with Columbus software (PerkinElmer) for quantification. These pictures were always taken in four different areas around the center of each well, and these areas were the same from one well to another, as programmed by the Columbus software. This software was also designed to count only living cells after exclusion of dying cells harboring nuclei with abnormal shape or altered Hoechst intensity. […] Neutral lipids were then normalized per number of nuclei and expressed relative to control cells. Examples of images used for neutral lipid quantification are shown in Supplementary Fig. 2.

apoC3 secretion = test: apoC3 level in culture medium (HTRF), HepaRG cells; format: cell-based, human; conditions: 4 days, culture medium, vs control
Method: as §2
Apolipoprotein C3 (apoC3) level was measured using the Human Apolipoprotein C3 kit from Cisbio Bioassays (Codolet, France), according to the manufacturer’s instructions. Briefly, 10 μL of supernatants was incubated with two different specific anti-human apoC3 antibodies, one donor and one acceptor. The detection principle of apoC3 is based on HTRF® (Homogeneous Time Resolved Fluorescence), a time-resolved FRET (Förster Resonance Energy Transfer) technology. After 2 h of incubation, light emission was measured with the Infinite F Nano+ microplate reader (Tecan, Männedorf, Switzerland). ApoC3 level was calculated utilizing standard curve, based on the ratio of A665 nm/A615 nm, and normalized to the total cellular protein content. Results were expressed in comparison to control cells.

[4] = Maximum plasma concentration (Cmax) in patients; format: in vivo, human; conditions: worked out from cited Cmax in patients
[5] = system: mitochondrial fatty acid oxidation (mtFAO); test: mtFAO with [U-14C]palmitic acid in HepaRG cells; format: cell-based, human; conditions: 4 days, vs control
Method: as §1
Results were normalized to total protein content determined using the Pierce BCA assay kit from Thermo Fischer Scientific (Waltham, MA). Results were expressed in comparison to control cells.

ERN1 (IRE1α) = test: RT-qPCR ERN1 mRNA in HepaRG cells; format: cell-based, human; conditions: 4 days, vs control
Method: Total RNA was extracted with the Nucleospin RNA isolation system purchased from Macherey-Nagel (Düren, Germany), which included a DNase treatment step. Quantification of isolated RNAs was assessed using a Nanodrop 1000 (Thermo Fisher Scientific, Waltham, MA). RNAs were reverse-transcribed into cDNAs using the High-Capacity cDNA Reverse Transcription Kit purchased from Applied Biosystems (Woolston, UK). Gene expression was assessed by real-time quantitative PCR analysis (RT-qPCR) using SYBR Green PCR Master Mix (Applied Biosystems) and a 384-well QuantStudio™ 7 Flex Real-Time PCR System (Thermo Fisher Scientific). Sequences of the primers used to measure gene expression are presented in Supplementary Table 3. Expression of GAPDH was chosen as reference and the 2^−ΔΔCt calculation method was used to express the relative expression of each selected gene.

[6] = system: de novo lipogenesis (DNL); test: DNL from [2-14C]acetic acid in HepaRG cells; format: cell-based, human; conditions: 4 days, vs control
Method: as §1
DNL was assessed by measuring newly synthesized radiolabeled lipids from [2-^14C]acetic acid, using a protocol adapted from Byrne et al. ([2014]). Briefly, culture medium was removed and cells were washed with warm PBS. Next, cells were incubated for 3 h with phenol red-free William’s E medium containing 1% fatty acid-free BSA, [2-^14C]acetic acid (1850 Bq per well, corresponding to 19.4 pM) and 50 μM cold acetic acid. Medium was then gently removed and cells were washed with warm PBS before adding a mix of hexane/isopropanol (3:2; v/v). Cell culture plates were sealed and incubated for 1 h at room temperature for lipid extraction. After transfer of the plate content in 200-μL microtubes, hexane and PBS were added to have a hexane/isopropanol/PBS ratio of 6:2:3 (v/v/v). Microtubes were then centrifuged at 1000×g for 5 min and radiolabeled lipids were counted in the upper phase with a Tri-Carb 4910TR liquid scintillation counter (PerkinElmer). Results were normalized to total protein content and expressed in comparison to control cells.

[7] = system: primary human hepatocytes (PHH); test: Neutral lipids with Nile red in primary human hepatocytes; format: cell-based; conditions: 4 days
Method: Primary human hepatocytes (PHH) were purchased from Biopredic International (Saint-Grégoire, France). Cells were seeded by the supplier in coated 96-well plates at a density of 5 × 10^4 cells/well. Upon receipt, culture medium was removed and replaced by William’s E medium supplemented as previously described for HepaRG cell differentiation, except for DMSO set at 1%. After 2–3 days, cells were treated as for HepaRG cells. For HepaRG cells and PHH, cells were always maintained in incubators at 37 °C with 5% CO2 and saturating humidity.
as §3

HepaRG cells [8] = test: Cellular ATP level (CellTiter-Glo) in HepaRG cells; format: cell-based, human; conditions: 4 days, vs controls
Method: Cellular ATP level was measured using the CellTiter-Glo® Luminescent Cell Viability assay purchased from Promega (Charbonnières, France), according to the manufacturer’s instructions. Briefly, control and treated HepaRG cells were first washed with warm PBS and kept for 30 min at room temperature in phenol red-free William’s E medium. Cells were next incubated with the CellTiter-Glo® reagent for 10 min at room temperature. Cells were then transferred in opaque-walled multiwell plates and the luminescent signal was quantified using a POLARstar Omega microplate reader (BMG Labtech, Ortenberg, Germany). Results were expressed in comparison to control cells.

[9] = selected concentrations (ATP loss < 30%, not above 100 × Cmax), vs control

Row | SMILES | Concentration corresponding to 100xCmax [4] [µM] | Effect on apoB secretion (apoB secretion) | Maximum plasma concentration (Cmax) in patients [1] [mg/L] | Cmax [1] [µM] | Accumulation of neutral lipids (steatosis) (HepaRG cells [3]; [9]) | Effect on apoC3 secretion (apoC3 secretion) | Effect on mtFAO [5] | Effect on DNL [6] | Loss of cellular ATP relative to the maximum concentration selected for the study (HepaRG cells [8]) | also measured
1 | O=C(NC1CCN(CCCCC2(C(=O)NCC(F)(F)F)c3ccccc3-c3ccccc32)CC1)c1ccccc1-c1ccc(C(F)(F)F)cc1 [lomitapide] | – | inhibited | – | – | – | – | – | – | – | –
2 | Cn1cc[nH]c1=S [METHI, methimazole] | – | – | ≤ 1.5 | ≤ 13 | did not induce steatosis | – | – | – | – | Therapeutic blood (or plasma) concentration in patients ([2]; listed as Methimazole (METHI)): 0.5 - 2.5 mg/L and 4.4 - 22 µM
3 | CCOC(=O)[C@@]1(CCCCCCOc2ccc(Cl)cc2)CO1 [etomoxir, (+)-etomoxir] | – | – | – | – | – | – | blocked | – | – | –
4 | COC(=O)C1=C(C)NC(C)=C(C(=O)OC)C1c1ccccc1[N+](=O)[O-] [NIF, nifedipine] | – | – | – | – | – | – | – | – | – | Therapeutic blood (or plasma) concentration in patients ([2]; listed as Nifedipine (NIF)): 0.025 - 0.15 mg/L and 0.07 - 0.43 µM
5 | CC(C)(C)NC(=O)[C@@H]1CN(Cc2cccnc2)CCN1C[C@@H](O)C[C@@H](Cc1ccccc1)C(=O)N[C@H]1c2ccccc2C[C@H]1O [INDI, indinavir] | 1300 | reduced the secretion | ≤ 8 | ≤ 13 | significant accumulation of neutral lipids | reduced the secretion | – | curb this metabolic pathway | – | –
6 | CC(C)(S)[C@@H](N)C(=O)O [DPEN, D-penicillamine] | 2500 | – | ≤ 3.76 | ≤ 25 | did not induce steatosis | – | – | – | 2500 µM (slight loss of cellular ATP for this concentration, as shown in Supp. fig 1) | Therapeutic blood (or plasma) concentration in patients ([2]; listed as D-penicillamine (DPEN)): 1.7 - 5.6 mg/L and 11.4 - 37.6 µM; Accumulation of neutral lipids (steatosis) (HepaRG cells [3]; concentrations above 100 × Cmax (100 μM NIF, 5000 μM DPEN)): significant accumulation of neutral lipids

More lines, main results first:

Row | Concentration corresponding to 100xCmax [4] [µM] | SMILES | Effect on apoB secretion (apoB secretion) | Maximum plasma concentration (Cmax) in patients [1] [mg/L] | Cmax [1] [µM] | Accumulation of neutral lipids (steatosis) (HepaRG cells [3]; [9]) | Effect on apoC3 secretion (apoC3 secretion) | Effect on mtFAO [5] | Effect on DNL [6] | Loss of cellular ATP relative to the maximum concentration selected for the study (HepaRG cells [8]) | also measured
7 | 42000 | O=c1[nH]cc(F)c(=O)[nH]1 [5FU, 5-fluorouracil] | reduced the secretion | ≤ 55 | ≤ 420 | significant accumulation of neutral lipids | reduced the secretion | significantly enhance mtFAO | curb this metabolic pathway | 100 µM (loss of cellular ATP above 30% of the controls for higher concentrations, as shown in Supp. fig 1) | Therapeutic blood (or plasma) concentration in patients ([2]; listed as 5-Fluorouracil (5FU)): 0.05 - 0.3 mg/L and 0.38 - 2.3 µM; ERN1 (IRE1α) mRNA level (ERN1 (IRE1α)): enhanced IRE1α mRNA level; Steatosis in PHH batches (six batches tested) [7]: induced steatosis in only one PHH batch
8 | 1500 | Oc1ncnc2[nH]ncc12 [ALLO, allopurinol] | reduced the secretion | ≤ 2.05 | ≤ 15 | significant accumulation of neutral lipids | reduced the secretion | significantly enhance mtFAO | curb this metabolic pathway | 750 µM (loss of cellular ATP above 30% of the controls for higher concentrations, as shown in Supp. fig 1) | Therapeutic blood (or plasma) concentration in patients ([2]; listed as Allopurinol (ALLO)): 2 - 19 mg/L and 15 - 140 µM; ERN1 (IRE1α) mRNA level (ERN1 (IRE1α)): enhanced IRE1α mRNA level; Steatosis in PHH batches (six batches tested) [7]: accumulation of neutral lipids in five PHH batches
